According to the NIST ThermoML archive (doi:10.1007/s10765-005-8590-7):

Assay: xn = mol fraction of the nth substance listed
Settings: Fluid (supercritical or subcritical phases), Constant-volume piezometry

N [ammonia] + O
Settings	mass density [kg/m3]
253.18 K, 483.5 kPa, x1 = 0.1386	956.4
254.14 K, 619.3 kPa, x1 = 0.1386	956.35
257.06 K, 1159.1 kPa, x1 = 0.1386	956.19
259.15 K, 1375.1 kPa, x1 = 0.1086	964.04
259.15 K, 1646.6 kPa, x1 = 0.1386	956.07
260.13 K, 3144.3 kPa, x1 = 0.0999	971.4
260.15 K, 1417.1 kPa, x1 = 0.1086	963.99
260.15 K, 3759 kPa, x1 = 0.0955	968.65
261.02 K, 2146.1 kPa, x1 = 0.1386	955.96
261.14 K, 1483.6 kPa, x1 = 0.1086	963.95
261.15 K, 3146.8 kPa, x1 = 0.0999	971.36
261.15 K, 3737.1 kPa, x1 = 0.0955	968.61
262.12 K, 3739.8 kPa, x1 = 0.0955	968.57
262.15 K, 1572 kPa, x1 = 0.1086	963.9
262.15 K, 3173.9 kPa, x1 = 0.0999	971.31
263.13 K, 1676.5 kPa, x1 = 0.1086	963.85
263.13 K, 1686.6 kPa, x1 = 0.1086	963.85
263.13 K, 3221.1 kPa, x1 = 0.0999	971.27
263.16 K, 3225.1 kPa, x1 = 0.0999	971.27
263.16 K, 3766.5 kPa, x1 = 0.0955	968.52
263.96 K, 16220 kPa, x1 = 0.0606	987.12
264.11 K, 3813.7 kPa, x1 = 0.0955	968.48
264.14 K, 3297.9 kPa, x1 = 0.0999	971.22
264.15 K, 1824.1 kPa, x1 = 0.1086	963.8
265 K, 16117 kPa, x1 = 0.0606	987.08
265.13 K, 3469.4 kPa, x1 = 0.1386	955.71
265.15 K, 1981.7 kPa, x1 = 0.1086	963.75
265.15 K, 3396.5 kPa, x1 = 0.0999	971.17
265.15 K, 3889.7 kPa, x1 = 0.0955	968.43
265.18 K, 5311.9 kPa, x1 = 0.0644	979.94
265.38 K, 8334.6 kPa, x1 = 0.064	980.35
265.62 K, 811.9 kPa, x1 = 0.0591	975.65
265.99 K, 16054 kPa, x1 = 0.0606	987.04
266.12 K, 16223 kPa, x1 = 0.047	989.78
266.14 K, 745.3 kPa, x1 = 0.0591	975.64
266.14 K, 8277 kPa, x1 = 0.064	980.32
266.15 K, 2619 kPa, x1 = 0.0582	979.8
266.63 K, 698.1 kPa, x1 = 0.0591	975.62
267.09 K, 4204.5 kPa, x1 = 0.1386	955.58
267.13 K, 2495.5 kPa, x1 = 0.0582	979.77
267.14 K, 8221.5 kPa, x1 = 0.064	980.28
267.15 K, 298 kPa, x1 = 0.1436	952.4
267.15 K, 2355.6 kPa, x1 = 0.1086	963.64
267.15 K, 3654.7 kPa, x1 = 0.0999	971.07
267.15 K, 16033 kPa, x1 = 0.047	989.74
267.16 K, 634.7 kPa, x1 = 0.0591	975.6
267.17 K, 5193.7 kPa, x1 = 0.0644	979.87
268.02 K, 15974 kPa, x1 = 0.0606	986.96
268.1 K, 7316.4 kPa, x1 = 0.0513	984.85
268.15 K, 723.3 kPa, x1 = 0.1436	952.33
268.17 K, 2415.7 kPa, x1 = 0.0582	979.73
268.17 K, 15948 kPa, x1 = 0.047	989.7
269 K, 15979 kPa, x1 = 0.0606	986.92
269.1 K, 7244.1 kPa, x1 = 0.0513	984.81
269.1 K, 7256.7 kPa, x1 = 0.0513	984.81
269.11 K, 500.6 kPa, x1 = 0.0591	975.52
